Results reported in article PMC12526218, “Design, Synthesis and Herbicidal Activity of 1,2,4-Oxadiazole Compounds as Novel Light-Dependent Protochlorophyllide Oxidoreductase Inhibitors” (Molecules, 2025).

biological target: Light-dependent protochlorophyllide oxidoreductase (AtLPOR); test: Plant LPOR ELISA kit on Arabidopsis leaf extract, IC50; assay type: biochemical, Arabidopsis thaliana

| Compound | IC50 |
| --- | --- |
| O=[N+]([O-])c1ccc(-c2noc(COCc3ccccc3)n2)cc1 [5j, 5-((benzyloxy)methyl)-3-(4-nitrophenyl)-1,2,4-oxadiazole] | 111 µM |
| O=[N+]([O-])c1cccc(-c2noc(COCc3ccccc3)n2)c1 [5k, 5-((benzyloxy)methyl)-3-(3-nitrophenyl)-1,2,4-oxadiazole] | 83.6 µM |
| c1ccc(COCc2nc(-c3ccc(OCc4ccccc4)cc3)no2)cc1 [5q, 5-((benzyloxy)methyl)-3-(4-(benzyloxy)phenyl)-1,2,4-oxadiazole] | 17.6 µM |
